In ChEMBL document CHEMBL1201862, “PubChem BioAssay data set” (2004):
Activity calls are given as the source filed them.

Tests used:
Protein RecA = target: T1, Protein RecA (Mycobacterium tuberculosis, UniProt P9WHJ3); assay: Fluorescence Cell-Free Homogeneous Dose Retest to Identify Inhibitors of RecA-Intein Splicing Activity. [Related pubchem assays (depositor defined):AID2097, AID2223, AID489010, AID492950]; type: functional
T1 sequence (P9WHJ3 whole entry): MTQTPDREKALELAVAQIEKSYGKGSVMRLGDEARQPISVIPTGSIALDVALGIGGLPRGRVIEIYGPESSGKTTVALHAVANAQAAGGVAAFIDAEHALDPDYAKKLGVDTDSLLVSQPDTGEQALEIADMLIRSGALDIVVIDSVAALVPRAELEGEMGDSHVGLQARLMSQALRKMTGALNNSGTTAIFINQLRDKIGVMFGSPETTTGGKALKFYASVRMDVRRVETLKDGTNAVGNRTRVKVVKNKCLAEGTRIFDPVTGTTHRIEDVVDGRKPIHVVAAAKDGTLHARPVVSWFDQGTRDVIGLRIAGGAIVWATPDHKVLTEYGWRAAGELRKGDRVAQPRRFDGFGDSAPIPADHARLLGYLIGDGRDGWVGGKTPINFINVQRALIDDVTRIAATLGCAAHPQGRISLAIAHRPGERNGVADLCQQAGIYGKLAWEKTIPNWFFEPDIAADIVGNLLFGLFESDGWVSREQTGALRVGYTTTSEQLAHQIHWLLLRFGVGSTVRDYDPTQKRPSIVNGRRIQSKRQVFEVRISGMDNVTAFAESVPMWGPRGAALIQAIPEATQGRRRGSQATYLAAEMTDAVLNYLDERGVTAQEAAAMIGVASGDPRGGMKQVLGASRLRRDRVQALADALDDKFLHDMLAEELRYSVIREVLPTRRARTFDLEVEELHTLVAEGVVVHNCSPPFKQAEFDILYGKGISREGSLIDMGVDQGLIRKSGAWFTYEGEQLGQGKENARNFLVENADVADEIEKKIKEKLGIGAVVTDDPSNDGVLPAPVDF

[1] = target: T2, Replicative DNA helicase DnaB (Mycobacterium tuberculosis, UniProt P9WMR3); assay: DnaB intein splicing inhibitors, dose response, biochemical, cell-free fluorescence (AID 449749); type: functional
T2 sequence (P9WMR3 whole entry): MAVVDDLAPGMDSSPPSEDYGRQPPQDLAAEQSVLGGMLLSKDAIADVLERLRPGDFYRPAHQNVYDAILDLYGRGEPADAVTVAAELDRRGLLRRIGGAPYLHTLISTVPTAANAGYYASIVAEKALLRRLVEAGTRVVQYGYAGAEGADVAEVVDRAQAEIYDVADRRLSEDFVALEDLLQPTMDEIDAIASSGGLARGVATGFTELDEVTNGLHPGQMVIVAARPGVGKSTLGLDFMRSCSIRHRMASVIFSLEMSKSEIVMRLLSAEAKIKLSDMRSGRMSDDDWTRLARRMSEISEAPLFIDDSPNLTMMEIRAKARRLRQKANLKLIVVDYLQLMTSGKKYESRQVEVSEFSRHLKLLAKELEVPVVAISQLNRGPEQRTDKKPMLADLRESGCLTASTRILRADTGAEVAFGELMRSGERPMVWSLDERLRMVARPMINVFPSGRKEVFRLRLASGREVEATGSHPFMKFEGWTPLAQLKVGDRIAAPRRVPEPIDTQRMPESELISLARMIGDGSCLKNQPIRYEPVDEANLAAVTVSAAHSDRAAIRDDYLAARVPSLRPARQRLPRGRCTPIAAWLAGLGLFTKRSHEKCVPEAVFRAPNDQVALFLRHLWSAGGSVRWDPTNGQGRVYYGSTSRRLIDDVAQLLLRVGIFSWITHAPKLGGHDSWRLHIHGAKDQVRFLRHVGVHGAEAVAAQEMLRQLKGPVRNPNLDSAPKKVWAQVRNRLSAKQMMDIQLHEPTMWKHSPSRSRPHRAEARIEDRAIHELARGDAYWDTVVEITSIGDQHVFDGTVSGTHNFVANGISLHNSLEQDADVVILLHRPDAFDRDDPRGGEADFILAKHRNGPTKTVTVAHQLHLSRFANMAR

[2] = target: T3, Tyrosyl-DNA phosphodiesterase 2 (Homo sapiens, UniProt O95551); assay: potency against TDP2 phosphodiesterase activity – biochemical, epi absorbance, IC50, dose response (AID 743297)
T3 sequence (O95551 whole entry): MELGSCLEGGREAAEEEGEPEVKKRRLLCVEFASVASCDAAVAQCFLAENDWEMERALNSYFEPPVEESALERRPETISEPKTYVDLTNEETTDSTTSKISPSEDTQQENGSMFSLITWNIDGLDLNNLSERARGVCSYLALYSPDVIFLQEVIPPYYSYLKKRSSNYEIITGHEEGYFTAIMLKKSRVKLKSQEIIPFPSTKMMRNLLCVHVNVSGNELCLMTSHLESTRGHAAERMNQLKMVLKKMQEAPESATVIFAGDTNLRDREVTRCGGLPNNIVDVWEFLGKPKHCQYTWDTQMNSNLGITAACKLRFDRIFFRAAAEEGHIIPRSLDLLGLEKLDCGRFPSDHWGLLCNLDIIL

| Compound | EC50 (Protein RecA) | AC50 [1] | IC50 [2] |
| --- | --- | --- | --- |
| CC(C)=CCC1=C(OCC(=O)O)C(=O)c2ccccc2C1=O | 7.75 µM (active) | 9.19 µM (active) | 23.6 µM (inactive) |
| Cc1[nH][nH]c(=O)c1C(c1c(C)[nH][nH]c1=O)c1cn(Cc2ccccc2Cl)c2ccccc12 | 0.299 µM (active) | 0.242 µM (active) | 54.2 µM (inactive) |
| Cc1cccc(NC2=C(NC(=O)c3ccccc3)C(=O)c3ccccc3C2=O)c1 | 1.71 µM (active) | 3.96 µM (active) | – |
